What follows are compounds tested on MDA-MB-231 (assay: Antiproliferative activity against human MDA-MB-231 cells assessed as cell growth inhibition measured after 48 hrs by MTT assay). Settings: MDA-MB-231, 48 h.
Format: functional, cell-based

Structure (SMILES)	IC50 [µM]
Cn1cnc(-c2nc3ccccc3n2C)c1C(=O)NC1CCCCC1	> 40
O=c1[nH]cc(F)c(=O)[nH]1 [FLUOROURACIL]	26.7
O=C(NC1CC1)c1[nH]cnc1-c1nc2ccccc2[nH]1	35.2
O=C(NCc1ccco1)c1[nH]cnc1-c1nc2ccccc2[nH]1	22.2
O=C(NC1CCCC1)c1[nH]cnc1-c1nc2ccccc2[nH]1	20.6
O=C(Nc1cccc2ccccc12)c1[nH]cnc1-c1nc2ccccc2[nH]1	34.8
O=C(NCC1CC1)c1[nH]cnc1-c1nc2ccccc2[nH]1	33.1
Cc1cc2nc(-c3nc[nH]c3C(=O)NC3CCCCC3)[nH]c2cc1C	35.6
N#Cc1cccc(NC(=O)c2[nH]cnc2-c2nc3ccccc3[nH]2)c1	24.9
Cn1c(-c2nc[nH]c2C(=O)NC2CCCCC2)nc2ccccc21	36.8
O=C(NC1CCCCCC1)c1[nH]cnc1-c1nc2ccccc2[nH]1	> 40
O=C(NCc1cccs1)c1[nH]cnc1-c1nc2ccccc2[nH]1	35.1
O=C(NC1CCC1)c1[nH]cnc1-c1nc2ccccc2[nH]1	33.8
CC(C)(C)NC(=O)c1[nH]cnc1-c1nc2ccccc2[nH]1	> 40
O=C(c1[nH]cnc1-c1nc2ccccc2[nH]1)N1CCOCC1	> 40
N#Cc1ccccc1NC(=O)c1[nH]cnc1-c1nc2ccccc2[nH]1	34.2

The compounds below were run on MDA-MB-468 (assay: Antiproliferative activity against human MDA-MB-468 cells assessed as cell growth inhibition measured after 48 hrs by MTT assay). Settings: MDA-MB-468, 48 h.
Format: functional, cell-based

Structure (SMILES)	IC50 [µM]
O=c1[nH]cc(F)c(=O)[nH]1 [FLUOROURACIL]	> 200
